The record followed here is US4587245A, “Method of treating neuropsychic disturbances by benzodiazepine derivatives and composition therefor” (Sanofi, priority 1976, dated 1986).

Where two headings read alike, the source gives them in different places. Some results are limits rather than exact numbers.

The test system of series [1] is central receptor site of the benzodiazepines. Put plainly: Affinity for the central benzodiazepine receptor site, displacement of 3H-flunitrazepam in vitro. In kind it is binding. Conditions: mice and rats. As to the method:
Studies were performed in mice and rats in order to evaluate the respective affinities of CM 6912 and of its metabolites on the central receptor site of the benzodiazepines.
In general terms: Displacement assays read how much labelled ligand stays bound in the presence of the test substance.

Series [2] deals with pentylenetetrazol (cardiazol) convulsions in mice. The series can be described thus: Anti-convulsive activity in relation to cardiazol. In kind it is in vivo. The settings on record: Mus musculus, oral, cardiazol 125 mg/kg intraperitoneally, protects 50% of animals, read-out: Anti-convulsive action Cardiazol ED50. Here is the method:
(§1) The products according to the invention were subjected to pharmacological tests in mice in order to determine their activity on the central nervous system. We shall indicate below the various tests to which the products were subjected.
(§2) In all cases the products were administered orally.
Anti-convulsive activity in relation to cardiazol
When administered intraperitoneally at a dose of 125 mg/kg, pentylenetetrazol (or cardiazol) causes the appearance of lethal convulsions in 100% of the mice treated.
The active products administered orally prior to the cardiazol oppose the appearance of the convulsions and possibly allow the test animals to survive.
The results are expressed as the ED50, that is to say as the dose (in mg/kg) which protects 50% of the animals.

Series [3] has as its system mice. Put plainly: Toxicity. In kind it is in vivo. Conditions: oral. As to the method: as §1, §2
Finally, for certain products, the LDo in mg/kg (for oral administration) has been provided.

Series [4] deals with equilibration of mice. The series can be described thus: Rotating rod test: equilibration. In kind it is in vivo. Conditions: Mus musculus, oral, 50% of mice fall. Here is the method:
as §1, §2
3. Rotating rod test: equilibration
The results are expressed as the 50% effective dose (ED50) which is the dose (in mg/kg) for which 50% of the mice fall during the test.

For series [5], the system named is mice pulling themselves up on a horizontal bar. Put plainly: Traction test. In kind it is in vivo. Conditions: Mus musculus, oral, 50% of mice can no longer pull themselves up. As to the method:
as §1, §2
This consists of observing whether the animals (mice) are capable of pulling themselves up on a horizontal bar gripped by the front paws.
The results are expressed as the 50% effective dose (ED50), which is the dose (in mg/kg) for which 50% of the mice can no longer pull themselves up.

For series [6], the system named is electric shock convulsions in mice. The series can be described thus: Anti-convulsive activity in relation to electric shock. In kind it is in vivo. The settings on record: Mus musculus, oral, treated 1 hour beforehand, 12.5 V, 0.5 second, read-out: Anti-convulsive action Electric shock ED50. Here is the method: as §1, §2
Anti-convulsive activity in relation to electric shock
An alternating current of 12.5 V is applied for 0.5 second by means of corneal electrodes to batches of 12 mice treated 1 hour beforehand with the product to be studied. The untreated mice subjected to this electric shock undergo a convulsion of the tonic type.

Series [7] has as its system mice. The series can be described thus: Anxiolytic activity: 4 plate test. In kind it is in vivo. Conditions: oral, 45 minutes after administration, lowest dose with significant effect. As to the method: as §1, §2
Anxiolytic activity: 4 plate test
The device is a parllelopiped chamber of which the floor consists of 4 metal plates of equal area. The experimenter can create a difference of potential which corresponds to a current of intensity 0.35 mA for a duration of 0.2 second, between each plate. Each time a mouse passes from one plate to the other, it receives an electric shock.
The anxiolytic agents cause an indifference to these electric shock and as a result the treated mice cross from one plate to another more frequently than the comparison mice. 45 minutes after administration of the product to be studied, the mice are placed in the chamber for 1 minute and the number of shocks received is measured and compared with the number of shocks received by the comparison animals. The results are expressed as a percentage increase in the number of shocks received by the treated animals relative to the comparison animals (which amounts to a percentage effect for a given dose), or as a threshold dose (TD) which is the lowest dose which produces a significant effect.

Series [8] concerns motility of mice. Put plainly: Spontaneous actography. Conditions: oral. In kind it is in vivo. As to the method:
as §1, §2
1. Spontaneous actography
The animals are placed in individual cages through which pass two beams which strike two photoelectric cells.
During their movements, the animals (mice) intercept the beams and cause a recording on the impulse counters.
The variations in the motility of the treated animals are expressed in percentages relative to comparison animals; the sign-indicates a reduction (in percent) of the motility of the subjects.

Series [9] is described as follows: Drug disposition studies after oral administration. In kind it is in vivo, several animal species and man. The source says:
The originality of the mechanism of action of CM 6912 has been determined by the appearance profile of active metabolites after oral administration.

For series [10], the system named is rats. Put plainly: Approach-avoidance conflict procedure in Skinner boxes (dissociation of anxiolytic and sedative activities). In kind it is in vivo, male Wistar rats. Conditions: intraperitoneal; for ED50: Rattus norvegicus, ip, 0.5 h, 30 minutes before the test. As to the method: Male Wistar rats are trained in Skinner boxes (Campden) in an approach-avoidance conflict procedure (Davidson and Cook, Psychopharmacologia 1969, 15, 159). The session lasts 30 minutes and consists of a multiple VI 30 sec/FR 3 schedule (sequence: 10 minutes VI+2 minutes FR+10 minutes VI+2 minutes FR+6 minutes VI). During the conflict periods, signalled by a light cue every 3d press delivers simultaneously a pellet and an electric shock. […] Lever presses are authomatically recorded by a microcomputer: non punished responses during the VI schedule and punished responses during the FR periods. A representative benzodiazepine of formula (I) above (R3=ethyl, R4=F; Code No. CM 6912) has been injected by intraperitoneal route 30 minutes before the test.

Series [11] relates to man. Put plainly: Therapeutic evaluation in man. Conditions: daily dosage of 2 mg. In kind it is in vivo. Here is the method:
For this purpose, a pharmaceutical composition containing 2 mg of CM 6912 is administered once a day.

The mark [12] stands for this setting: oral, several animal species and man.
[13] abbreviates: dose 0.5 mg/kg, minus sign = reduction.

For `O=C1Nc2ccc(Cl)cc2C(c2ccccc2F)=NC1O` (stereo not shown) [3-hydroxy analog], the “displacement of 3H-flunitrazepam in vitro” value (shortened to “displacement”) in series [1] is recorded as “very potent”.

Consider `CCOC(=O)C1N=C(c2ccccc2)c2cc(Cl)ccc2NC1=O` (stereo not shown) [CM 4279, reference compound], for which the ED50 – broadly, the midpoint of the dose-response relation – was 9 mg/kg in [2], above 100 mg/kg in [4], 100 mg/kg in [5] and above 500 mg/kg in [6]. Also, the “Toxicity LD.” value in series [3] is listed as above 300 mg/kg. The “Anxiolysis 4 plates threshold dose (TD)” value in series [7] is recorded as 10. Besides, in [8] (dose 100 mg/kg), the “Actography, variation in motility relative to comparison animals” value is “none”.

Turning to `CCOC(=O)C1N=C(c2ccccc2F)c2cc(Cl)ccc2NC1=O` (stereo not shown) [CM 6912, 7-chloro-3-ethoxycarbonyl-5-(2-fluorophenyl)-2-oxo-2,3-dihydro-1H-benzodiazepine-1,4], in series [9] (setting [12]), the biotransformation entry is listed as “biotransformed into the free acid”. For the same compound, in series [9] (setting [12]), the “stability in the gastro-intestinal tract” value is “stable in the gastro-intestinal tract”. Further, the ED50 was 1.66 mg/kg in series [10] (read-out: anxiolytic activity ED50 (increase in punished responding)); 16 mg/kg in [10] (read-out: sedative activity ED50 (decrease in unpunished responding)); 0.6 mg/kg in series [2]; 5 mg/kg in series [4]; 10 mg/kg in series [5]; 12 mg/kg in series [6]. Besides, the “dissociation of the anxiolytic and sedative activities” value in series [10] is reported as “statistically significant”. Also, in series [3], the “Toxicity LD.” value was above 300 mg/kg. In addition, the “adverse effect in man” value in series [11] was “without adverse effect”. Further, the “anxiolytic properties in man” value in [11] is “potent anxiolytic properties”. In series [7], the “Anxiolysis 4 plates threshold dose (TD)” value turned out to be 1. The “Actography, variation in motility relative to comparison animals” value in [8] (dose 33 mg/kg, minus sign = reduction) is listed as -23%. The “displacement” value in series [1] is “weak displacers”.

`CCOC(=O)C1N=C(c2ccccc2Cl)c2cc(Cl)ccc2NC1=O` (stereo not shown) [CM 7101, 7-chloro-3-ethoxycarbonyl-5-(2-chlorophenyl)-2-oxo-2,3-dihydro-1H-benzodiazepine-1,4]: the median effective dose (ED50) in series [2] is 0.75 mg/kg; in series [4], 6 mg/kg; in series [5], 6 mg/kg; in series [6], 12 mg/kg. Besides, in [3], the “Toxicity LD.” value is above 300 mg/kg. Moreover, the “Anxiolysis 4 plates threshold dose (TD)” value in [7] is given as 0.5. Moreover, in series [8] (setting [13]), the “Actography, variation in motility relative to comparison animals” value is on record as -58%.

As to `COC(=O)C1N=C(c2ccccc2Cl)c2cc(Cl)ccc2NC1=O` (stereo not shown) [compound 7442], the ED50 in series [2] is 0.4 mg/kg; in series [4] it was 8 mg/kg; in [5], 5 mg/kg; in series [6] it was 32 mg/kg. Besides, the “Toxicity LD.” value in series [3] is reported as above 300 mg/kg. Further, the “Anxiolysis 4 plates threshold dose (TD)” value in [7] is 0.1. Also, the “Actography, variation in motility relative to comparison animals” value in [8] (setting [13]) was -57%.

As to `O=C1CN=C(c2ccccc2F)c2cc(Cl)ccc2N1` [de-carbethoxy analog], in series [1], the “displacement” value is on record as “very potent”.

In the case of `O=C(O)C1N=C(c2ccccc2F)c2cc(Cl)ccc2NC1=O` (stereo not shown) [free acid], in series [9] (metabolite of CM 6912), the activity of metabolite result is “inactive metabolite”. Also, the “displacement” value in [1] is given as “weak displacers”.
